Values after ≈ are worked out from the molar mass of the structure shown.
Key:
Mtb laboratory ID IZAK = settings: MDR clinical isolate; external resistance profiling; cited from earlier work
[1] = test system: Mtb IZAK (multidrug-resistant clinical isolate); assay: microbe, parasite or virus in culture; type: cell-based, Mycobacterium tuberculosis; settings: for Mtb IZAK susceptibility class (R/S): MDR clinical isolate; for MIC: Mycobacterium tuberculosis, read-out: Mtb IZAK MIC
Mtb laboratory ID MATI = settings: MDR clinical isolate; external resistance profiling; cited from earlier work
[2] = test system: Mtb MATI (multidrug-resistant clinical isolate); assay: microbe, parasite or virus in culture; type: cell-based, Mycobacterium tuberculosis; settings: for Mtb MATI susceptibility class (R/S): MDR clinical isolate; for MIC: Mycobacterium tuberculosis, read-out: Mtb MATI MIC

## CO[C@H]1/C=C/O[C@@]2(C)Oc3c(C)c(O)c4c(O)c(c(/C=N/N5CCN(C)CC5)c(O)c4c3C2=O)NC(=O)/C(C)=C\C=C\[C@H](C)[C@H](O)[C@@H](C)[C@@H](O)[C@@H](C)[C@H](OC(C)=O)[C@@H]1C [RIF, rifampicin]
Mtb laboratory ID IZAK
  Mtb IZAK MIC, value from external resistance profiling (*): > 8 µg/mL
[1]
  Mtb IZAK susceptibility class (R/S): R
Mtb laboratory ID MATI
  Mtb MATI MIC, value from external resistance profiling (*): > 8 µg/mL
[2]
  Mtb MATI susceptibility class (R/S): R

## NC(=O)c1nccnc1NC(=O)c1ccc(F)cc1 [Compound 12]
[1]
  MIC: 100 µg/mL (≈ 384 µM)
[2]
  MIC: 100 µg/mL (≈ 384 µM)

## Cc1ccc(C(=O)Nc2nccnc2C(N)=O)cc1 [Compound 4]
[1]
  MIC: 12.5 µg/mL (≈ 48.8 µM)
[2]
  MIC: 12.5 µg/mL (≈ 48.8 µM)

## NC(=O)c1cnccn1 [PZA, pyrazinamide]
Mtb laboratory ID IZAK
  Mtb IZAK MIC, value from external resistance profiling (*): > 16 µg/mL
[1]
  Mtb IZAK susceptibility class (R/S): R
Mtb laboratory ID MATI
  Mtb MATI MIC, value from external resistance profiling (*): > 128 µg/mL
[2]
  Mtb MATI susceptibility class (R/S): R

## NC(=O)c1nccnc1NC(=O)c1ccc(Br)cc1 [Compound 18]
[1]
  MIC: 12.5 µg/mL (≈ 38.9 µM)
[2]
  MIC: 12.5 µg/mL (≈ 38.9 µM)

## [H]/N=C(/N)N[C@H]1[C@H](O)[C@@H](O)[C@H](O[C@@H]2O[C@@H](C)[C@](O)(C=O)[C@H]2O[C@@H]2O[C@@H](CO)[C@H](O)[C@@H](O)[C@@H]2NC)[C@@H](N/C(N)=N\[H])[C@@H]1O [STM, streptomycin]
Mtb laboratory ID IZAK
  Mtb IZAK MIC, value from external resistance profiling (*): 4 µg/mL
[1]
  Mtb IZAK susceptibility class (R/S): R
Mtb laboratory ID MATI
  Mtb MATI MIC, value from external resistance profiling (*): > 16 µg/mL
[2]
  Mtb MATI susceptibility class (R/S): R

## NC(=O)c1nccnc1NC(=O)c1ccc(Cl)cc1 [Compound 15]
[1]
  MIC: 12.5 µg/mL (≈ 45.2 µM)
[2]
  MIC: 12.5 µg/mL (≈ 45.2 µM)

## NNC(=O)c1ccncc1 [INH, isoniazid]
[1]
  Mtb IZAK susceptibility class (R/S): R
  MIC: 4 µg/mL (≈ 29.2 µM)
[2]
  Mtb MATI susceptibility class (R/S): R
  MIC: > 8 µg/mL

## CC[C@@H](CO)NCCN[C@@H](CC)CO [EMB, ethambutol]
Mtb laboratory ID IZAK
  Mtb IZAK MIC, value from external resistance profiling (*): 0.5 µg/mL
[1]
  Mtb IZAK susceptibility class (R/S): S
  MIC: 0.39 µg/mL (≈ 1.91 µM)
Mtb laboratory ID MATI
  Mtb MATI MIC, value from external resistance profiling (*): 0.5 µg/mL
[2]
  Mtb MATI susceptibility class (R/S): S
  MIC: 0.39 µg/mL (≈ 1.91 µM)
